Source: patent US20080038768A1, “Assay for ubiquitin mediated proteolysis” (priority 2006, published 2008)
Each block holds one compound with its values, some of them ahead of it.

What was measured:
USP-2 and UCH-L3 [1] = assay: Downscaling: compatibility of the deubiquitinase assay with HBC and DMSO; format: biochemical, human
Protocol: One important factor which has to be tested during downscaling of the assay to the […] (2080 well nanoplates) is the assay's compatibility with hydroxy beta cyclodextrin (HBC) and DMSO. Nanocarriers are coated with HBC in order facilitate re-solubilization of dried test compounds (‘dry screening’) and to reduce adsorption of assay components to the carrier. If HBC interferes with the assay, pre-coated plates can not be used and ‘wet screening’, utilizing compounds dissolved in DMSO, has to be performed. […] Even DMSO concentrations of up to 5% are found to be compatible with the screen. […] These findings support a ‘wet screening’ format for these target family.

USP-2 and UCH-L3 [2] = assay: Inhibition of the deubiquitinases (titration of inhibitor, fluorescence polarization assay); format: biochemical, human; conditions: in presence of 5 mM DTT
Protocol: Measurements of polarization and lifetime are performed on the research reader of Evotec OAI (see below). To perform the test, the de-ubiquitinating enzyme is first put into the well and the addition of the substrate triggered the start of the reaction. The enzymatic reaction is stopped by shifting the pH from 7.5 to 5 with the addition of Stop buffer (end concentration of 30 mM malonic acid pH 4.5—see TABLE 1). With this procedure the read-out could be kept stable for several hours.
Cysteine proteases, such as USP-2 and UCH-L3, are sensitive to covalent modification of the active site cystein. […] Ubiquitin aldehyde is a known inhibitor for both enzymes, USP-2 and UCH-L3. […] Using this molecule we analyzed whether addition of DTT can be utilized to mask the activity of covalent active site inhibitors during the screen. When titrating Ubiquitin aldehyde in presence of 5 mM DTT an IC50 value of 100 nM was found.

USP-2 and UCH-L3 [3] = conditions: in absence of reducing agent; cited from earlier work

Compound: hydroxy beta cyclodextrin [HBC]
Effect on enzymatic activity (USP-2 and UCH-L3 [1]; HBC added to the assay): a reduction of the enzymatic activity was observed

Concentration compatible with the screen (USP-2 and UCH-L3 [1]): up to 5%
Interference with the reaction (USP-2 and UCH-L3 [1]; increasing concentrations added to the assay): only a minimal interference
Compound: C[S+](C)[O-] [DMSO]

IC50 (USP-2 and UCH-L3 [2]): 0.1 µM
Compound: Ubiquitin aldehyde
Potency (USP-2 and UCH-L3 [3]): pM activity range
